Counter-ions that a name gives are not always drawn.
Each molecule was assayed against T1, human SARM1(50-724) (Homo sapiens, UniProt Q6SZW1) (assay: SARM1 biological assay: HPLC measurement of NAD and NAM peak areas).
T1 construct: 40 nM human SARM1(50-724)
T1 sequence (Q6SZW1 50-724): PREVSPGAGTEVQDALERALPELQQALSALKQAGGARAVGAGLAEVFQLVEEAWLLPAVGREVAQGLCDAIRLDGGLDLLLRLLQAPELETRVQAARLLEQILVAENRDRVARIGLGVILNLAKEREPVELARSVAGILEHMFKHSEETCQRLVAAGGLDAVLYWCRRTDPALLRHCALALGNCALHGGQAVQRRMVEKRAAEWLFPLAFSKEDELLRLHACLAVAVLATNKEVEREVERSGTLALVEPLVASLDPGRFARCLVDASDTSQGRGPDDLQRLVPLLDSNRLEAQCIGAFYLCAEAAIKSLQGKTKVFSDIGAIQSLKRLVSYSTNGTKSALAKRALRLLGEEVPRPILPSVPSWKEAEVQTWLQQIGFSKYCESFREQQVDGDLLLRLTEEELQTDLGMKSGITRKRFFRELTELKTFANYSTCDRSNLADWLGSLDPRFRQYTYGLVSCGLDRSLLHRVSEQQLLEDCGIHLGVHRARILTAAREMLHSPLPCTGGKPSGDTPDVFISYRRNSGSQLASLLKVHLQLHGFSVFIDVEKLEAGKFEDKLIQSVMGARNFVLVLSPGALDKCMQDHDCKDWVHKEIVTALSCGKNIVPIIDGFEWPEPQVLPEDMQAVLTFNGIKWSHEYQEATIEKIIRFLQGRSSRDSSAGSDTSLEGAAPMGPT
Format: biochemical
Procedure: Each reaction was run at a volume of 20 μL containing 50 μM compound (dissolved in DMSO; final concentration of DMSO is 1% v/v), 40 nM human SARM1(50-724), 0.3 mM NMN, 20 μM NAD, 1 mM TCEP, 25 mM HEPES pH 7.4, 10 mM KCl and 10 mM MgCl2. The reaction was incubated at room temperature for 60 minutes and quenched with 20 μL of 0.4% formic acid. The samples were run on Agilent HPLC 1260 Infinity II with Synergi 2.5 μM Fusion-RP 100 Å (100×3.0 mm) LC column from Phenomenex. Total run time for each sample was 4 minutes. The run was isocratic with 1.5% methanol in 40 mM ammonium acetate pH 6.0. Samples were run at a flow rate of 0.8 mL/min at 55° C. Peak areas of NAD and NAM were determined using OpenLAB CDS (Chem Station edition) software. For dose-response, the compound was diluted serially 1:3 in DMSO and added to the reaction starting at a final compound concentration of 100 μM in 1% DMSO.
In the case of `Fc1cnccc1Cc1coc(C2CC(F)(F)C2)n1` [Example 4A, 2-(3,3-Difluorocyclobutyl)-4-((3-fluoropyridin-4-yl)methyl)oxazole], the IC50 is reported as 10 to 100 µM. `Fc1cnccc1Cc1coc(C2CCC(F)(F)CC2)n1` [Example 17B, 2-(4,4-Difluorocyclohexyl)-4-((3-fluoropyridin-4-yl)methyl)oxazole] gave an IC50 of 10 to 100 µM. In the case of `ClC1(Cl)C[C@@H]1c1nc(Cc2ccncc2)c[nH]1` (single isomer, unassigned) [Example 33A], the IC50 is reported as under 1 µM. With `OC1(c2nc(Cc3ccncc3)c[nH]2)CCC(F)(F)CC1` [Example 12] the IC50 was 1 to 10 µM. With `FC(F)(F)[C@H]1CCO[C@H]1c1nc(Cc2ccncc2)c[nH]1` (relative stereo) [Example 27, (cis)-4-((2-(3-(trifluoromethyl)tetrahydrofuran-2-yl)-1H-imidazol-4-yl)methyl)pyridine] the IC50 was 10 to 100 µM. `FC1(F)CN(c2nc(Cc3ccncc3)c[nH]2)C1` [Example 2, 4-((2-(3,3-Difluoroazetidin-1-yl)-1H-imidazol-4-yl)methyl)pyridine] gave an IC50 of 1 to 10 µM. `CC(c1ccncc1)c1c[nH]c(C(=O)C(F)(F)F)n1` (racemic) [Example 22, 2,2,2-Trifluoro-1-(4-(pyridine-4-yl)ethyl)-1H-imidazol-2-yl)ethan-1-one hydrochloride] showed an IC50 of under 1 µM. Work on `FC(F)(F)O[C@H]1C[C@H](c2nc(Cc3ccncc3)c[nH]2)C1` [Example 37B, (trans)-4-((2-(3-(Trifluoromethoxy)cyclobutyl)-1H-imidazole-4-yl)methyl)pyridine] yielded an IC50 of 1 to 10 µM. `FC1(Cl)CC1c1nc(Cc2ccncc2)c[nH]1` (stereo not shown) [Example 39, 4-((2-(2-Chloro-2-fluorocyclopropyl)-1H-imidazol-4-yl)methyl)pyridine] gave an IC50 of under 1 µM. Molecule `C[C@H](c1ccncc1)c1c[nH]c(C(=O)C(F)(F)F)n1` (single isomer, unassigned) [Example 23A, hydrochloride] has an IC50 of under 1 µM.
